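Method: 48-hour compound exposure of cells in 96-well plates, five concentrations, linear interpolation of endpoints. At the GI50, growth is halved.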 Activity calls are given as the source filed them. Cut-off read from the data, not from the text of the source: active = GI50 up to about 1.1 µM and inactive = higher.
How the values were obtained:
Assay in all cases: NCI-60 cell line screen, 48 h
[1] = tested on: TK-10
[2] = tested on: OVCAR-5
[3] = tested on: UACC-62
[4] = tested on: M14
[5] = tested on: HCC 2998
[6] = tested on: SNB-19
[7] = tested on: SK-MEL-28
[8] = tested on: Hs-578T
[9] = tested on: OVCAR-3
[10] = tested on: UO-31
[11] = tested on: HOP-62
[12] = tested on: SF-295
[13] = tested on: U-251
[14] = tested on: SF-539
[15] = tested on: SR
[16] = tested on: HL-60
[17] = tested on: COLO 205
[18] = tested on: ACHN
[19] = tested on: SW-620
[20] = tested on: SNB-75

Row | Compound | GI50 [1] | GI50 [2] | GI50 [3] | GI50 [4] | GI50 [5] | GI50 [6] | GI50 [7] | GI50 [8] | GI50 [9] | GI50 [10] | GI50 [11] | GI50 [12] | GI50 [13] | GI50 [14] | GI50 [15] | GI50 [16] | GI50 [17] | GI50 [18] | GI50 [19] | GI50 [20]
1 | CCOC(=O)/C(C#N)=C(/NS(=O)(=O)c1cc(C)c(Cl)cc1[S-])[n+]1ccc(N(C)C)cc1 | > 100 µM (inactive) | > 100 µM (inactive) | > 100 µM (inactive) | > 100 µM (inactive) | > 100 µM (inactive) | > 100 µM (inactive) | > 100 µM (inactive) | > 100 µM (inactive) | > 100 µM (inactive) | > 100 µM (inactive) | > 100 µM (inactive) | > 100 µM (inactive) | > 100 µM (inactive) | > 100 µM (inactive) | > 100 µM (inactive) | > 100 µM (inactive) | > 100 µM (inactive) | > 100 µM (inactive) |  | 
2 | Cc1csc2nc(-c3cc([N+](=O)[O-])c(Cl)cc3Cl)c(/C=N/N=C(N)N)n12 | 16.8 µM (inactive) | 17.4 µM (inactive) | 14.2 µM (inactive) | 17.1 µM (inactive) | 7.19 µM (inactive) | 19.8 µM (inactive) | 16.4 µM (inactive) | 15.4 µM (inactive) | 17 µM (inactive) | 16 µM (inactive) | 16.3 µM (inactive) | 17.8 µM (inactive) | 16.6 µM (inactive) | 18.7 µM (inactive) | 0.0678 µM (active) | 13.5 µM (inactive) | 17.9 µM (inactive) | 16.6 µM (inactive) | 17.2 µM (inactive) | 
3 | [O-][S+](Nc1ccccc1)c1ccc(Cl)c(Cl)c1 (centres undefined) | > 100 µM (inactive) |  | 25.8 µM (inactive) | 73.5 µM (inactive) | 27.3 µM (inactive) | 62.8 µM (inactive) | > 100 µM (inactive) | 24.5 µM (inactive) | 63.2 µM (inactive) | 52 µM (inactive) | 26.1 µM (inactive) | 24.2 µM (inactive) | 15.9 µM (inactive) | 20.6 µM (inactive) | 26.4 µM (inactive) | 36.9 µM (inactive) | 69.7 µM (inactive) | 62.5 µM (inactive) | > 100 µM (inactive) | 
4 | CC(NC(=O)C(N)CC(=O)O)C(=O)OC12CC3CC(CC(C3)C1)C2 (centres undefined) | > 100 µM (inactive) | > 100 µM (inactive) | > 100 µM (inactive) | > 100 µM (inactive) | > 100 µM (inactive) | > 100 µM (inactive) | > 100 µM (inactive) | > 100 µM (inactive) |  | > 100 µM (inactive) |  |  | > 100 µM (inactive) |  | > 100 µM (inactive) |  | > 100 µM (inactive) | > 100 µM (inactive) | > 100 µM (inactive) | > 100 µM (inactive)
5 | COC1=C[C@]2(CCC(=O)O2)[C@@H]2Cc3ccccc3[C@H](O)[C@@H]2C1=O | > 100 µM (inactive) | > 100 µM (inactive) | 24.8 µM (inactive) | > 100 µM (inactive) | > 100 µM (inactive) | > 100 µM (inactive) | > 100 µM (inactive) | > 100 µM (inactive) | 28.5 µM (inactive) | 39.8 µM (inactive) | 69.3 µM (inactive) | > 100 µM (inactive) | 27.7 µM (inactive) |  | 19.5 µM (inactive) | 25.7 µM (inactive) | > 100 µM (inactive) | 49.2 µM (inactive) | 28.4 µM (inactive) | 
6 | O=C1CCCCC/C1=C\c1ccc(F)cc1 | 50.8 µM (inactive) | > 100 µM (inactive) | 40.3 µM (inactive) | > 100 µM (inactive) | > 100 µM (inactive) | > 100 µM (inactive) | > 100 µM (inactive) | 86.1 µM (inactive) | > 100 µM (inactive) | 42.4 µM (inactive) | > 100 µM (inactive) | > 100 µM (inactive) | 98.6 µM (inactive) |  | 47.6 µM (inactive) |  | > 100 µM (inactive) | > 100 µM (inactive) | > 100 µM (inactive) | > 100 µM (inactive)
7 | Cc1cc(C)c2c(n1)S(=O)(=O)N(CCCN1CCN(c3cccc(Cl)c3)CC1)C(C(=O)c1ccc(Br)cc1)=C2O | 17.7 µM (inactive) | 36.2 µM (inactive) | 31.6 µM (inactive) | 19.4 µM (inactive) |  | 20.9 µM (inactive) | 28.2 µM (inactive) | 29.6 µM (inactive) | 16.8 µM (inactive) | 7.1 µM (inactive) | 19.9 µM (inactive) | 18.9 µM (inactive) | 21.3 µM (inactive) | 20.7 µM (inactive) | 13.4 µM (inactive) | 14.3 µM (inactive) | 15.4 µM (inactive) | 27.3 µM (inactive) | 34.1 µM (inactive) | 10.3 µM (inactive)
8 | CC(C)(N)C(=O)N[C@@H]1C(=O)N2[C@@H]1SC(C)(C)[C@@H]2C(=O)O | > 100 µM (inactive) | > 100 µM (inactive) | > 100 µM (inactive) | > 100 µM (inactive) |  | > 100 µM (inactive) | > 100 µM (inactive) | > 100 µM (inactive) | > 100 µM (inactive) | > 100 µM (inactive) | > 100 µM (inactive) | > 100 µM (inactive) | > 100 µM (inactive) | > 100 µM (inactive) | > 100 µM (inactive) | < 0.01 µM (active) | > 100 µM (inactive) | > 100 µM (inactive) | > 100 µM (inactive) | > 100 µM (inactive)
